Test results as given in PMC9500072, “Topical application of an irreversible small molecule inhibitor of lysyl oxidases ameliorates skin scarring and fibrosis” (Nature Communications, 2022).
Several values for one entry are separate records, joined by “and”; a condition that tells them apart may be missing. Equal entries are not always repeated.

What was measured:
[1] = biological target: Histamine H2 (Homo sapiens, UniProt P25021); test: Eurofins panel 239710; type: binding
[2] = system: Glutamate, NMDA, Phencyclidine; test: Eurofins panel 233000; type: binding, rat; conditions: 10 µM
[3] = system: full-thickness excision injury scar; test: Murine excision injury model; type: in vivo, C57BL6/J mice
Source text: Having established promising in vivo anti-fibrotic efficacy, we next evaluated a full-thickness excision injury model in mice. Full-thickness excision injuries of approximately 1.1 cm^2 (approximately 2% body surface area) of dorsal skin were created under anesthesia. From Day 2 post-injury, animals received daily application of 0, 0.5, or 1.5% PXS-6302 oil in water cream for 28 days. At the end of the experiment, all animals were euthanised and scar tissue analyzed for collagen and cross-link content. […] Therefore, when applied after injury and during the healing phase, PXS-6302 reduced collagen crosslinking and total collagen deposition in the scar. Reassuringly, the efficacy of PXS-6302 was in line with earlier studies (performed with the first-generation inhibitor, PXS-4787, Supplementary Fig. S7) albeit with what appears to be a more comprehensive impact on crosslinking at a lower dose.
Cell pellets or isolated tissue samples were completely hydrolyzed in 1.5 mL 6 M hydrochloric acid for 24 h at 105 °C. After complete hydrolysis, samples were dried using a vacuum dryer and reconstituted using 200 µL MilliQ water. The sample clean-up was performed using solid-phase extraction method which uses C18 and SCX solid-phase extraction cartridges for sample purification. The samples were run on UPLC-MS-MS (Mass Spectrometer: Thermo Scientific TSQ Endura Triple quadrupole, UPLC: Thermo Scientific Dionex UltiMate 3000) using Agilent RRHD SB-C18,2.1x50mm,1.8um analytical column and solvent A: 10 mM ammonium formate, 0.1% formic acid, 0.1% HFBA in H2O and solvent B: 10 mM ammonium formate, 0.1% formic acid, 0.1% HFBA in MeOH and analyzed as previously described. Limits of detection are listed in Supplementary Table S4.
Nine-week-old C57BL6/J female mice (n = 8 per group) received a full-thickness excision injury of 1.1 cm^2 on dorsal area using a circular 12-mm biopsy punch (Acu-Punch, Badand Medical, P1250) (approximately 2% body surface area) under anesthesia. All animals received intramuscular injection of buprenorphine (0.1 mg/kg) as an analgesia. Paracetamol (1 mg/ml) was provided for 5 days post-injury in drinking water. Animals were allowed to recover for 24 h post-injury. Animals in the treatment group received twice a day application of 3% PXS-4787 cream for 28 days. For PXS-6302, once per day application of 1.5% concentration cream was used. At the end of the experiment, all animals were euthanised using an intraperitoneal injection of pentobarbitone (160 mg Kg-1) under Isoflurane anesthesia, and scar tissues were removed. The scar skin was fixed in 4% paraformaldehyde overnight at 4 °C. After fixation, tissues were washed in sterile PBS at room temperature. Samples were processed in Leica ASP300S Tissue Processor followed by embedding in paraffin blocks using tissue processor (Leica EG1150 modular tissue embedding center). The paraffin blocks were sectioned at 5 µm thickness using a wax microtome (fully automated Leica RM2255). For standard histology, the skin sections were stained with hematoxylin and eosin stain and Masson’s Trichrome stain. The stained sections were used to determine the collagen fiber orientation in the control and treatment specimens. All stained skin tissue sections were processed for whole slide imaging using a ScanScopeXT (Aperio Technologies, USA) at 20-x magnification. The digital images were collected and analyzed using ImageScope software (Aperio Techologies, Inc, USA). A piece of excised mouse scar tissue was processed for the collagen crosslinks extraction. The scar skin was weighed and homogenized in 900 µL PBS (FastPrep-24TM5G(MP) homogenizer). The tissue homogenate equivalent to 10 mg tissue was transferred to heat/acid resistant screw cap tube (VWR 16466-060) and the total volume of 870 µL was adjusted with PBS. The tissue homogenate was reduced with a Sodium borohydride buffer and processed for cross-link extraction protocol as mentioned in previous section.

[4] = biological target: Cannabinoid CB1 (Homo sapiens, UniProt P21554); test: Eurofins panel 217030; type: binding
Chain of Cannabinoid CB1 (P21554 whole entry): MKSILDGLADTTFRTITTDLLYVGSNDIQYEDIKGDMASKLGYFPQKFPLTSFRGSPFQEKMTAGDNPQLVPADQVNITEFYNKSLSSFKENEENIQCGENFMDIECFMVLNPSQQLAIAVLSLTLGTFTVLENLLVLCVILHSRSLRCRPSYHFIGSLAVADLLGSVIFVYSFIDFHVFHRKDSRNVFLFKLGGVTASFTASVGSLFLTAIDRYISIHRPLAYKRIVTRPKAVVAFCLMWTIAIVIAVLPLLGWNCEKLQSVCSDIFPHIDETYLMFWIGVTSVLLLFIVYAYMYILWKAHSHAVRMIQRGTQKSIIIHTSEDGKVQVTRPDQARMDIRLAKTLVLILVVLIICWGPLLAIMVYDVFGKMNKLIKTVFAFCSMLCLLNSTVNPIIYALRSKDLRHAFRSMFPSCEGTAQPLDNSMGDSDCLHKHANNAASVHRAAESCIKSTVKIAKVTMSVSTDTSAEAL

[5] = system: Sodium Channel, Site 2; test: Eurofins panel 279510; type: binding, rat
[6] = biological target: Dopamine D1 (Homo sapiens, UniProt P21728); test: Eurofins panel 219500; type: binding
Chain of Dopamine D1 (P21728 whole entry): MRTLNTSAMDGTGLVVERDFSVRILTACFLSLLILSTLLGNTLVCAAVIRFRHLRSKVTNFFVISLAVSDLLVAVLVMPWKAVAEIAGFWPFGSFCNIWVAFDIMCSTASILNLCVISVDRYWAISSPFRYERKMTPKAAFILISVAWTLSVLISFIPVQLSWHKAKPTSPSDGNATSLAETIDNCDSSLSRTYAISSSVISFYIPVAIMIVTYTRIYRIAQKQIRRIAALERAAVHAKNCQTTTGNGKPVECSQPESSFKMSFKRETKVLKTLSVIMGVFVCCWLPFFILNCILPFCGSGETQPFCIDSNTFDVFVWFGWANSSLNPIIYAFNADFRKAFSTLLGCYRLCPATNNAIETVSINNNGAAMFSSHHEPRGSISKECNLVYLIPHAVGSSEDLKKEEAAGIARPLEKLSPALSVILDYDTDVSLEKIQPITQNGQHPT

[7] = biological target: Opiate κ(OP2, KOP) (Homo sapiens, UniProt P41145); test: Eurofins panel 260210; type: binding
Chain of Opiate κ(OP2, KOP) (P41145 whole entry): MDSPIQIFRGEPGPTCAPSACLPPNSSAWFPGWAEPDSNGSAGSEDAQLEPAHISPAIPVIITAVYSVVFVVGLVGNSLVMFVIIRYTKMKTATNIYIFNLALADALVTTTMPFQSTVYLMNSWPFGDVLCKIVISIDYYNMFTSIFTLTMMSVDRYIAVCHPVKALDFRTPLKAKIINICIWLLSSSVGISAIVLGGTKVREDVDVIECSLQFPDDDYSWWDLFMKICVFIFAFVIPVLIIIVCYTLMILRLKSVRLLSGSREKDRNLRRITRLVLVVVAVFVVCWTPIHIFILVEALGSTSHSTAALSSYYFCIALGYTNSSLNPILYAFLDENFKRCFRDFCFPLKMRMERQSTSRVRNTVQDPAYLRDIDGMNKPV

[8] = biological target: Muscarinic M2 (Homo sapiens, UniProt P08172); test: Eurofins panel 252710; type: binding
Chain of Muscarinic M2 (P08172 whole entry): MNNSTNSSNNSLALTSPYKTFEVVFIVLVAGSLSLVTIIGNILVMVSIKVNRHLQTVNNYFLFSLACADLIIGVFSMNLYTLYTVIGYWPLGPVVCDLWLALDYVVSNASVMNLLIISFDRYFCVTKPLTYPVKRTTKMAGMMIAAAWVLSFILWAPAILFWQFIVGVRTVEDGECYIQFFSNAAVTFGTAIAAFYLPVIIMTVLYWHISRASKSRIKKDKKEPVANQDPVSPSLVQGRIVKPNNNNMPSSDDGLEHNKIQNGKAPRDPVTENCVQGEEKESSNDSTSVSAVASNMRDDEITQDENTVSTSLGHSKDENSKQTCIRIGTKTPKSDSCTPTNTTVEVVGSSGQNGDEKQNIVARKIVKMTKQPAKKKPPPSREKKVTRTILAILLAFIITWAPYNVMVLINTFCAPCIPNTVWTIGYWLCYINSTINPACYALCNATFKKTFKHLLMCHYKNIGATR

[9] = biological target: Adrenergic β1 (Homo sapiens, UniProt P08588); test: Eurofins panel 204010; type: binding
[10] = biological target: Dopamine D2S (Homo sapiens, UniProt P14416); test: Eurofins panel 219700; type: binding
[11] = biological target: Serotonin (5-Hydroxytryptamine) 5-HT1A (Homo sapiens, UniProt P08908); test: Eurofins panel 271110; type: binding
Chain of Serotonin (5-Hydroxytryptamine) 5-HT1A (P08908 whole entry): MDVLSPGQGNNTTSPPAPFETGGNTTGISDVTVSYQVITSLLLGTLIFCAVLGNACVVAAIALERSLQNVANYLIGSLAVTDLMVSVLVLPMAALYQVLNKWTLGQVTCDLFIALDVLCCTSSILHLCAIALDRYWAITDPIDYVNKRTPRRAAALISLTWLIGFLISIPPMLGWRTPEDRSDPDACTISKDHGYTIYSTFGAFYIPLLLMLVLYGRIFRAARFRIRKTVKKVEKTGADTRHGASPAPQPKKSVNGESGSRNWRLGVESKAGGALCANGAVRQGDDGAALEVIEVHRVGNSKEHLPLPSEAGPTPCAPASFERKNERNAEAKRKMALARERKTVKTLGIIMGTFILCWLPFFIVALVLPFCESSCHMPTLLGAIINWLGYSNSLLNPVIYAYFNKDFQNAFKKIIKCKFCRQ

[12] = biological target: Serotonin (5-Hydroxytryptamine) 5-HT3 (Homo sapiens, UniProt P46098); test: Eurofins panel 271910; type: binding
Chain of Serotonin (5-Hydroxytryptamine) 5-HT3 (P46098 24-478): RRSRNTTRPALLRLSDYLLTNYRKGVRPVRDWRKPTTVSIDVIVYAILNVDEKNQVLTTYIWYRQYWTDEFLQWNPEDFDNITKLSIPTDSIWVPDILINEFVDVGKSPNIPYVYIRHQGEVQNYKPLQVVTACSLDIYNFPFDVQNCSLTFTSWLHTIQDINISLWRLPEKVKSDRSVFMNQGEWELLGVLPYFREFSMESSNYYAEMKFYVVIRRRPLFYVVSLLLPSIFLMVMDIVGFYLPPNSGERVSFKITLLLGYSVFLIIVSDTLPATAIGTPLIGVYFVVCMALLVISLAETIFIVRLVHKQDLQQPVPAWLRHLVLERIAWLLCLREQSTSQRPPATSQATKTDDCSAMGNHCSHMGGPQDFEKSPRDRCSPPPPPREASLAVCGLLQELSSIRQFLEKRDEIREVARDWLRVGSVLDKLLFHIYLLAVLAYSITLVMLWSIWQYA

[13] = biological target: Adrenergic α2A (Homo sapiens, UniProt P08913); test: Eurofins panel 203630; type: binding
[14] = biological target: Transporter, Norepinephrine (NET) (Homo sapiens, UniProt P23975); test: Eurofins panel 204410; type: binding
Chain of Transporter, Norepinephrine (NET) (P23975 whole entry): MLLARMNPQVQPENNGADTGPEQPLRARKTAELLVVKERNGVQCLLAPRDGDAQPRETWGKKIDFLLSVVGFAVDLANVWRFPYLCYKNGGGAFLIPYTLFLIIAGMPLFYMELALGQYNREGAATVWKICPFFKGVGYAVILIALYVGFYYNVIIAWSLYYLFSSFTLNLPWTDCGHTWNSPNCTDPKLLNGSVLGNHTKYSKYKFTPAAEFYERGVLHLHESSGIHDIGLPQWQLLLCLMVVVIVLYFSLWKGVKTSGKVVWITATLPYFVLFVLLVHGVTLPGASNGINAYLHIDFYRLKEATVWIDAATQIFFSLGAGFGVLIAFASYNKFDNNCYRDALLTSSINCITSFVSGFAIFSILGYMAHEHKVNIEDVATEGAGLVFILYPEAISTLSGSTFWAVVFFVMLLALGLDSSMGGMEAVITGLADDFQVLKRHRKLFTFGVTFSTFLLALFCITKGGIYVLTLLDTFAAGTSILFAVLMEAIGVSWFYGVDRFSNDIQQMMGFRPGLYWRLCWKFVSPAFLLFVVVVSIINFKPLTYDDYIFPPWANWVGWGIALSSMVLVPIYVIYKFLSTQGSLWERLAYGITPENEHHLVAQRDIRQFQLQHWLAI

[15] = biological target: Muscarinic M3 (Homo sapiens, UniProt P20309); test: Eurofins panel 252810; type: binding
Chain of Muscarinic M3 (P20309 whole entry): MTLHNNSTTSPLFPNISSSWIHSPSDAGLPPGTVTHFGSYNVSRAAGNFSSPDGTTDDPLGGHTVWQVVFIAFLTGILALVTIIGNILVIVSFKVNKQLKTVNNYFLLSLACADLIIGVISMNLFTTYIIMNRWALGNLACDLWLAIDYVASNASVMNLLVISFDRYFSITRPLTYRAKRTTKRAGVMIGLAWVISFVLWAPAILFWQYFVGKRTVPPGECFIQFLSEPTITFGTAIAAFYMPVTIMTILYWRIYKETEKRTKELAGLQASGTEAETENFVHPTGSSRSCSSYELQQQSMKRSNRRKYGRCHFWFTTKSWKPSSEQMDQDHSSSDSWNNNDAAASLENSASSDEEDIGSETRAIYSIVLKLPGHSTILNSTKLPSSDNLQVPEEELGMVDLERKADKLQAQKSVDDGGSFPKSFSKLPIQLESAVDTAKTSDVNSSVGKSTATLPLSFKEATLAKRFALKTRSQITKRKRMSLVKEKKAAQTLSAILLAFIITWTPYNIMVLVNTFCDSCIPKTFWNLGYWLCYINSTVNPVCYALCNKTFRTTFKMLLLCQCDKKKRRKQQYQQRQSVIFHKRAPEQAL

[16] = system: Calcium Channel L-Type, Dihydropyridine; test: Eurofins panel 214600; type: binding, rat
[17] = biological target: Glucocorticoid (Homo sapiens, UniProt P04150); test: Eurofins panel 232030; type: binding
Chain of Glucocorticoid (P04150 whole entry): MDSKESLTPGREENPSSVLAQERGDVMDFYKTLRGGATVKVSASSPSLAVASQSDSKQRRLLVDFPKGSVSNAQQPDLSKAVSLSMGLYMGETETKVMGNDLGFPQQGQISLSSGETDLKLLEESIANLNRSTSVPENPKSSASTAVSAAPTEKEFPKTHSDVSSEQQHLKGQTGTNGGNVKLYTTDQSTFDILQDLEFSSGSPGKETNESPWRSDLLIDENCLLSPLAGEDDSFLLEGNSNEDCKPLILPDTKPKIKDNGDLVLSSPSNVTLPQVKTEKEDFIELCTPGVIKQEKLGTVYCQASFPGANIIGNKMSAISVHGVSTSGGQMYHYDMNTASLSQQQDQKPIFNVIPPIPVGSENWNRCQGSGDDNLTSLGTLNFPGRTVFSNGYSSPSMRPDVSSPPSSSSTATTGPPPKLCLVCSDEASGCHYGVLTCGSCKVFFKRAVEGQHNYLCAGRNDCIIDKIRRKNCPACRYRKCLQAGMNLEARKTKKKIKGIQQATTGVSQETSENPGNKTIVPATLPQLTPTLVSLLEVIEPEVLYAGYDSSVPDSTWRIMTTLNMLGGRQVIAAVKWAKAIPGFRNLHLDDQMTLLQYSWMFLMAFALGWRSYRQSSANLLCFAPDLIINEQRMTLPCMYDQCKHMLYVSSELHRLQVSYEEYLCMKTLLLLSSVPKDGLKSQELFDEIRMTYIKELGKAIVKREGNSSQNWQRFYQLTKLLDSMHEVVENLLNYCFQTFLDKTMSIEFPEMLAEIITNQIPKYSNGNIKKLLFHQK

[18] = biological target: Serotonin (5-Hydroxytryptamine) 5-HT2A (Homo sapiens, UniProt P28223); test: Eurofins panel 271650; type: binding
[19] = 3% PXS-4787, individual samples
[20] = 0.5 or […] cream daily for 28 days

Chain of Histamine H2 (P25021 whole entry): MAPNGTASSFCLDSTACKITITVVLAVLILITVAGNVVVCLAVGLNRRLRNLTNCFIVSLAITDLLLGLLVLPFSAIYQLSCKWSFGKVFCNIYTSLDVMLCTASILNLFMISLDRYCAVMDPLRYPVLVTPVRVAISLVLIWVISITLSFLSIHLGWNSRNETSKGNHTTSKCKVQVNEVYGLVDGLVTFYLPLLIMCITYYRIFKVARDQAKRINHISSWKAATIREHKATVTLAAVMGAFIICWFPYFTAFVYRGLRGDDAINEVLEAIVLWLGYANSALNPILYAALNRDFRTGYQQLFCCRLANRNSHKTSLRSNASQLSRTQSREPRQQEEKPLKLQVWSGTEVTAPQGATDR

## NC/C=C(\F)CS(=O)(=O)c1ccccc1 [PXS-4787]
[1]; 10 µM
  inhibition at 10 µM: -4%
[2]
  % Inh.: 8%
[3]; [19]
  DLHNL: 32.598 pmol/mg tissue and 48.992 pmol/mg tissue and 38.94 pmol/mg tissue and 30.0045 pmol/mg tissue and 38.524 pmol/mg tissue and 51.535 pmol/mg tissue and 45.099 pmol/mg tissue and 36.456 pmol/mg tissue and 45.26 pmol/mg tissue
  DPD: 0.2026 pmol/mg tissue and 0.9604 pmol/mg tissue and 0.9521 pmol/mg tissue and 0.3416 pmol/mg tissue and 0.3259 pmol/mg tissue and 0.4694 pmol/mg tissue and 0.5793 pmol/mg tissue and 0.3046 pmol/mg tissue
  HLNL: 11.709 pmol/mg tissue and 8.873 pmol/mg tissue and 7.946 pmol/mg tissue and 7.092 pmol/mg tissue and 8.4919 pmol/mg tissue and 8.338 pmol/mg tissue and 7.8195 pmol/mg tissue and 7.455 pmol/mg tissue
  HYP: 8529.4 pmol/mg tissue and 13422.8 pmol/mg tissue and 10345 pmol/mg tissue and 7129.2 pmol/mg tissue and 10620.5 pmol/mg tissue and 15497 pmol/mg tissue and 11840.8 pmol/mg tissue and 10529.6 pmol/mg tissue and 12893.7 pmol/mg tissue
  PYD: 3.941 pmol/mg tissue and 2.065 pmol/mg tissue and 3.401 pmol/mg tissue and 3.561 pmol/mg tissue and 3.481 pmol/mg tissue and 3.75 pmol/mg tissue and 2.469 pmol/mg tissue and 2.034 pmol/mg tissue
[3]; 3% cream for 28 days
  collagen cross-links formation in mouse scar: Reduced
[4]; 10 µM
  inhibition at 10 µM: 8%
[5]; 10 µM
  % Inh.: 13%
[6]; 10 µM
  inhibition at 10 µM: 3%
[7]; 10 µM
  inhibition at 10 µM: 3%
[8]; 10 µM
  inhibition at 10 µM: 7%
[9]; 10 µM
  inhibition at 10 µM: -3%
[10]; 10 µM
  inhibition at 10 µM: 13%
[11]; 10 µM
  inhibition at 10 µM: 0%
[12]; 10 µM
  inhibition at 10 µM: 6%
[13]; 10 µM
  inhibition at 10 µM: 1%
[14]; 10 µM
  inhibition at 10 µM: 24%
[15]; 10 µM
  inhibition at 10 µM: 27%
[16]; 10 µM
  % Inh.: -4%
[17]; 10 µM
  inhibition at 10 µM: 3%

## NC/C=C(\F)C(F)(F)S(=O)(=O)c1ccccc1 [PXS-6302]
[1]; read-out: % Inh.
  inhibition at 30 µM: 5%
[3]; 0.5%, individual animals
  DHLNL: 67.3445 pmol/mg protein and 104.493 pmol/mg protein and 49.564 pmol/mg protein and 93.5833 pmol/mg protein and 114.502 pmol/mg protein and 104.151 pmol/mg protein and 87.6663 pmol/mg protein and 102.971 pmol/mg protein
  DPD: 0.09524 pmol/mg protein and 0.2563 pmol/mg protein and 0.2515 pmol/mg protein and 0.4184 pmol/mg protein and 0.4492 pmol/mg protein and 0.4037 pmol/mg protein and 0.2113 pmol/mg protein and 0.2885 pmol/mg protein
  HLNL: 0.7003 pmol/mg protein and 0.9861 pmol/mg protein and 0.7921 pmol/mg protein and 1.215 pmol/mg protein and 1.527 pmol/mg protein and 1.179 pmol/mg protein and 1.122 pmol/mg protein and 0.9282 pmol/mg protein
  HYP: 135437 pmol/mg protein and 169286 pmol/mg protein and 127310 pmol/mg protein and 207537 pmol/mg protein and 183083 pmol/mg protein and 195703 pmol/mg protein and 151852 pmol/mg protein and 169426 pmol/mg protein
  PYD: 1.932 pmol/mg protein and 5.635 pmol/mg protein and 3.784 pmol/mg protein and 5.7092 pmol/mg protein and 5.347 pmol/mg protein and 5.273 pmol/mg protein and 4.615 pmol/mg protein and 4.89 pmol/mg protein
[3]; [20]
  hydroxyproline concentration in scar: dose-dependent reduction
  mature and immature crosslinks in scar: dose-dependently diminished
[4]; read-out: % Inh.
  inhibition at 30 µM: 4%
[5]; 30 µM
  % Inh.: 66%
[6]; read-out: % Inh.
  inhibition at 30 µM: 0%
[7]; read-out: % Inh.
  inhibition at 30 µM: 10%
[8]; read-out: % Inh.
  inhibition at 30 µM: 16%
[9]; read-out: % Inh.
  inhibition at 30 µM: 4%
[10]; read-out: % Inh.
  inhibition at 30 µM: 13%
[11]; read-out: % Inh.
  inhibition at 30 µM: 3%
[12]; read-out: % Inh.
  inhibition at 30 µM: 6%
[13]; read-out: % Inh.
  inhibition at 30 µM: 17%
[14]; read-out: % Inh.
  inhibition at 30 µM: 55%
[15]; read-out: % Inh.
  inhibition at 30 µM: 15%
[16]; 30 µM
  % Inh.: 2%
[17]; read-out: % Inh.
  inhibition at 30 µM: 13%
[18]
  inhibition at 30 µM: 25%
